In assay [1] the target is T1, glutathione S-transferase (GST)-fused full-length human Syk protein (Homo sapiens, UniProt P43405).
T1 construct: (GST)-fused full-length human Syk protein; GST (glutathione S-transferase); purchased Carna Biosciences
Kind of assay: Syk enzyme assay. The class given is biochemical. The method in brief: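 IC50 values come from a time-resolved FRET readout (615 and 665 nm) of substrate phosphorylation, measured after an EDTA stop and 1 h antibody binding. The kinase reaction ran 40 min at room temperature with 27 μM ATP and 0.4 μM biotin-peptide, following a 15 min compound preincubation with baculovirus-made GST-full-length human Syk.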

Another assay has as its system THP-1 cells. Kind of assay: TNFα generation assay. The class given is cell-based, human. The settings on record: Homo sapiens. The method in brief: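 THP-1 cells differentiated to macrophage-like cells with 10 ng/ml IFN-γ for 2 days, preincubated with compound 30 min at room temperature, then cultured 7 h on plates coated with human IgG (10 μg/ml). Secreted TNFα measured by ELISA or AlphaLISA.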

Where [2] appears, read: Syk enzyme assay, Test Example 1, read-out: IC50 of Syk-inhibitory activity.
Where [3] appears, read: THP-1, THP-1 cells, Table 22, read-out: IC50 in TNFα generation assay.
Setting [4] is: read-out: Syk-inhibitory activity (IC50).
The mark [5] stands for this setting: THP-1, 7 h, IFN-γ-differentiated THP-1 cells on human IgG-coated plate, cultured 7 hours, read-out: TNFα generation inhibitory activity (IC50).

Where “and” joins values, the source holds several entries; their conditions need not be identical. Equal values may be shown once. Read-outs that look alike come from different tables or passages of the source.

For the compound `NC(=O)c1cc(F)c(NC2CCCCC2N)nc1Nc1cncc2ccccc12` (centres unmarked) [Example 010-001], the IC50 was under 10 nM in assay [1] (setting [2]) and under 65 nM in the assay with THP-1 cells (setting [3]).
Consider `NC(=O)c1cc(F)c(NC2CCCCC2N)nc1Nc1cnc2ncccc2c1` (centres unmarked) [Example 010-002], for which the IC50 was 10 to 50 nM in assay [1] (setting [2]) and 130 to 200 nM in the assay with THP-1 cells (setting [3]).
As to `CC(C)C[C@@H](Nc1nc(Nc2ccc3ncccc3c2)c(C(N)=O)cc1F)C(N)=O` [Example 11, 6-(((2R)-1-amino-4-methyl-1-oxopentan-2-yl)amino)-5-fluoro-2-(quinolin-6-ylamino)nicotinamide], the values for the IC50 (in assay [1] (setting [4]); with THP-1 cells (setting [5])) were at most 1000 nM and at most 200 nM, respectively.
Turning to `CC(C)C[C@@H](Nc1nc(Nc2ccc3ncsc3c2)c(C(N)=O)cc1F)C(N)=O` [Example 012-005], the IC50 in assay [1] (setting [2]) lay in the range of 10 to 50 nM; in the assay with THP-1 cells (setting [3]), 130 to 200 nM.
As to `NC(=O)c1cc(F)c(N[C@@H](C(N)=O)c2ccccc2)nc1Nc1ccc2ncccc2c1` [Example 12-8, 6-(((1R)-2-amino-2-oxo-1-phenylethyl)amino)-5-fluoro-2-(quinolin-6-ylamino)nicotinamide], the results for the IC50 (in assay [1] (setting [4]); in the assay on THP-1 cells (setting [5])) were at most 1000 nM and at most 200 nM, respectively.
In the case of `CC(C)C[C@@H](Nc1nc(Nc2ccc3ncccc3c2)c(C(N)=O)cc1F)C(N)=O` [Example 012-009], the IC50 was under 10 nM in assay [1] (setting [2]) and 65 to 130 nM in the assay on THP-1 cells (setting [3]).
`NC(=O)c1cc(F)c(N[C@@H](C(N)=O)c2ccccc2)nc1Nc1cnc2ccccc2c1` [Example 012-013]: the IC50 is 10 to 50 nM in assay [1] (setting [2]) and 130 to 200 nM with THP-1 cells (setting [3]).
`CC[C@@H](Nc1nc(Nc2ccc3ncccc3c2)c(C(N)=O)cc1F)C(N)=O` [Example 012-031]: the values for the IC50 (in assay [1] (setting [2]); in the assay on THP-1 cells (setting [3])) were 10 to 50 nM and 65 to 130 nM, respectively.
As to `C[C@@H](Nc1nc(Nc2ccc3ncccc3c2)c(C(N)=O)cc1F)C(N)=O` [Example 012-036, (R)-6-((1-amino-1-oxopropan-2-yl)amino)-5-fluoro-2-((quinolin-6-yl)amino)nicotinamide], the IC50 in assay [1] (setting [2]) was in the range of 10 to 50 nM; with THP-1 cells (setting [3]), 65 to 130 nM.
`C[C@H](N)CNc1nc(Nc2ccc3ncccc3c2)c(C(N)=O)cc1F` [Example 13, 6-((2S)-2-aminopropylamino)-5-fluoro-2-(quinolin-6-ylamino)nicotinamide]: the values for the IC50 (in assay [1] (setting [4]); in the assay with THP-1 cells (setting [5])) were at most 1000 nM and at most 200 nM, respectively.
For the compound `CC(C)C(N)CNc1nc(Nc2ccc3ncccc3c2)c(C(N)=O)cc1F` (centres unmarked) [Example 014-002], the IC50 is under 10 nM in assay [1] (setting [2]) and under 65 nM in the assay on THP-1 cells (setting [3]).
With `NC(=O)c1cc(F)c(NCC(N)c2ccccc2)nc1Nc1ccc2ncccc2c1` (centres unmarked) [Example 014-005], the IC50 in assay [1] (setting [2]) was under 10 nM; in the assay on THP-1 cells (setting [3]), under 65 nM.
The like results for `CC(N)CNc1nc(Nc2ccc3ncccc3c2)c(C(N)=O)cc1F` (centres unmarked) [Example 014-009] were, in that order, under 10 nM and under 65 nM.
Consider `NC(=O)c1cc(F)c(NCC(N)C2CC2)nc1Nc1ccc2ncccc2c1` (centres unmarked) [Example 014-013, 6-((2-amino-2-cyclopropylethyl)amino)-5-fluoro-2-((quinolin-6-yl)amino)nicotinamide], for which the figures for the IC50 (in assay [1] (setting [2]); in the assay on THP-1 cells (setting [3])) were 10 to 50 nM and 130 to 200 nM, respectively.
The like results for `NC(=O)c1cc(F)c(NCC2(N)CC2)nc1Nc1ccc2ncccc2c1` [Example 014-014, 6-((1-aminocyclopropylmethyl)amino)-5-fluoro-2-((quinolin-6-yl)amino)nicotinamide] were, in that order, under 10 nM and 130 to 200 nM.
Turning to `NC(=O)c1cc(F)c(NCC(N)C(F)(F)F)nc1Nc1ccc2ncccc2c1` (centres unmarked) [Example 014-016, 6-((2-amino-3,3,3-trifluoropropyl)amino)-5-fluoro-2-((quinolin-6-yl)amino)nicotinamide], the IC50 was under 10 nM in assay [1] (setting [2]) and 65 to 130 nM in the assay on THP-1 cells (setting [3]).
Take `NC(=O)c1cc(F)c(NC[C@@H](N)c2ccccn2)nc1Nc1ccc2ncccc2c1` [Example 014-017, (R)-6-((2-amino-2-(pyridin-2-yl)ethyl)amino)-5-fluoro-2-((quinolin-6-yl)amino)nicotinamide]: the values for the IC50 (in assay [1] (setting [2]); with THP-1 cells (setting [3])) were under 10 nM and 130 to 200 nM, respectively.
Take `NC(=O)c1cc(F)c(NC[C@@H](N)c2ccsc2)nc1Nc1ccc2ncccc2c1` [Example 014-019, (S)-6-((2-amino-2-(thiophene-3-yl)ethyl)-amino)-5-fluoro-2-((quinolin-6-yl)amino)-nicotinamide]: the IC50 in assay [1] (setting [2]) was under 10 nM; in the assay with THP-1 cells (setting [3]), 65 to 130 nM.
Turning to `NC(=O)c1cc(F)c(NC2CCCCC2N)nc1Nc1cncc(NC(=O)c2cccc(F)c2F)c1` (centres unmarked) [Example 027-030], the IC50 lay within 10 to 50 nM in assay [1] (setting [2]) and 130 to 200 nM in the assay with THP-1 cells (setting [3]).
`NC(=O)c1cc(F)c(NC2CCCCC2N)nc1Nc1cncc(NC(=O)c2ccco2)c1` (centres unmarked) [Example 027-033]: the IC50 in assay [1] (setting [2]) was under 10 nM; with THP-1 cells (setting [3]) it was 130 to 200 nM.
As to `NC(=O)c1cc(Cl)c(NC2CCCCC2N)nc1Nc1cnc2ccccc2c1` (centres unmarked) [Example 035-001], the results for the IC50 (in assay [1] (setting [2]); with THP-1 cells (setting [3])) were under 10 nM and 65 to 130 nM, respectively.
Regarding `NC(=O)c1cc(Br)c(NC2CCCCC2N)nc1Nc1cnc2ccccc2c1` (centres unmarked) [Example 035-002], the IC50 in assay [1] (setting [2]) is under 10 nM; in the assay on THP-1 cells (setting [3]), 65 to 130 nM.
Take `Cc1cccc(Nc2nc(NC3CCCCC3N)c(Cl)cc2C(N)=O)c1` (centres unmarked) [Example 035-005]: the IC50 in assay [1] (setting [2]) was under 10 nM; in the assay with THP-1 cells (setting [3]) it was 130 to 200 nM.
For the compound `Cc1cncc(Nc2nc(NC3CCCCC3N)c(Br)cc2C(N)=O)c1` (centres unmarked) [Example 035-007], the IC50 in assay [1] (setting [2]) is under 10 nM; in the assay on THP-1 cells (setting [3]), 65 to 130 nM.
Turning to `Cc1cc(C)cc(Nc2nc(NCCN)c(Br)cc2C(N)=O)c1` [Example 035-009], the IC50 in assay [1] (setting [2]) is < 10 nM and 10 to 50 nM; with THP-1 cells (setting [3]), 130 to 200 nM.
With `NC(=O)c1cc(F)c(N[C@@H]2CCCC[C@@H]2N)nc1Nc1cccc2ncccc12` [Example 37-1, 6-((1R,2S)-2-aminocyclohexylamino)-5-fluoro-2-((quinolin-5-yl)amino)nicotinamide], the IC50 was under 10 nM in assay [1] (setting [2]) and under 65 nM with THP-1 cells (setting [3]).
On the same counts, the results for `NC(=O)c1cc(F)c(N[C@@H]2CCCC[C@@H]2N)nc1Nc1cncc2ccccc12` [Example 37-2, 6-((1R,2S)-2-aminocyclohexylamino)-5-fluoro-2-((isoquinolin-4-yl)amino)nicotinamide] are under 10 nM and under 65 nM.
As for `NC(=O)c1cc(F)c(N[C@@H]2CCCC[C@@H]2N)nc1Nc1ccc2ncccc2c1` [Example 37-3, 6-((1R,2S)-2-aminocyclohexylamino)-5-fluoro-2-((quinolin-6-yl)amino)nicotinamide], the IC50 is under 10 nM in assay [1] (setting [2]) and under 65 nM in the assay with THP-1 cells (setting [3]).
In the case of `NC(=O)c1cc(F)c(N[C@@H]2CCCC[C@@H]2N)nc1Nc1cnc2ccccc2c1` [Example 37-4, 6-((1R,2S)-2-aminocyclohexylamino)-5-fluoro-2-((quinolin-3-yl)amino)nicotinamide], the figures for the IC50 (in assay [1] (setting [2]); with THP-1 cells (setting [3])) were under 10 nM and under 65 nM, respectively.
As for `Cn1ncc2cc(Nc3nc(N[C@@H]4CCCC[C@@H]4N)c(F)cc3C(N)=O)ccc21` [Example 37-5, 6-((1R,2S)-2-aminocyclohexylamino)-5-fluoro-2-((1-methyl-1H-indazol-5-yl)amino)-nicotinamide], the IC50 in assay [1] (setting [2]) was under 10 nM; with THP-1 cells (setting [3]), 65 to 130 nM.
Take `CC[C@H](CN)Nc1nc(Nc2ccc3ncccc3c2)c(C(N)=O)cc1F` [Example 39-2, (R)-6-((1-aminobutan-2-yl)amino)-5-fluoro-2-((quinolin-6-yl)amino)nicotinamide]: the IC50 in assay [1] (setting [2]) is under 10 nM; in the assay with THP-1 cells (setting [3]), under 65 nM.

The values above are taken from patent US8895585B2, “Nicotinamide derivative or salt thereof” (FUJIFILM Corporation, priority 2010, dated 2014).
